{"source": "patent US7935815B2", "about": "“Imidazoyl pyridine compounds and salts thereof” (Eisai R&D Management Co., Ltd., priority 2007, dated 2011)", "note": "pIC50: −log10 of the molar value."}
{"system": "Aβ42 production", "assay": "Quantification of Aβ peptide in culture of neurons from rat fetus brain (Aβ ELISA)", "assay_type": "cell-based", "conditions": "Rattus norvegicus, Neuron, 72 h, rat primary neuronal culture (embryonic day 18 Wistar rat cerebral cortex); cultured three days after addition of compound; Aβx-42 ELISA of the medium; read-out: Aβ42 production reducing effect IC50", "protocol": "Quantification of Aβ Peptide in Culture of Neurons from Rat Fetus Brain\n(1) Rat Primary Neuronal Culture\nPrimary neuronal cultures were prepared from the cerebral cortex of embryonic day 18 Wistar rats (Charles River Japan, Yokohama, Japan). Specifically, the embryos were aseptically removed from pregnant rats under ether anesthesia. The brain was isolated from the embryo and immersed in an ice-cold L-15 medium (Invitrogen Corp. Cat #11415-064, Carlsbad, Calif., USA, or SIGMA L1518, for example). The cerebral cortex was collected from the isolated brain under a stereoscopic microscope. The cerebral cortex fragments collected were enzymatically treated in an enzyme solution containing 0.25% trypsin (Invitrogen Corp. Cat #15050-065, Carlsbad, Calif., USA) and 0.01% DNase (Sigma D5025, St. Louis, Mo., USA) at 37° C. for 30 minutes to disperse the cells. Here, the enzymatic reaction was stopped by adding inactivated horse serum to the solution. The enzymatically treated solution was centrifuged at 1,500 rpm for five minutes to remove the supernatant. 5 to 10 ml of a medium was added to the resulting cell mass. Neurobasal medium (Invitrogen Corp. Cat #21103-049, Carlsbad, Calif., USA) supplemented with 2% B27 supplement (Invitrogen Corp. Cat #17504-044, Carlsbad, Calif., USA), 25 μM 2-mercaptoethanol (2-ME, WAKO Cat #139-06861, Osaka, Japan), 0.5 mM L-glutamine (Invitrogen Corp. Cat #25030-081, Carlsbad, Calif., USA), and Antibiotics-Antimycotics (Invitrogen Corp. Cat #15240-062, Carlsbad, Calif., USA) was used as the medium (Neurobasal/B27/2-ME). However, the above Neurobasal medium not supplemented with 2-ME (Neurobasal/B27) was used for the assay. The cells were redispersed by mild pipetting of the cell mass to which the medium was added. The cell dispersion was filtered through a 40-μm nylon mesh (Cell Strainer, Cat #35-2340, Becton Dickinson Labware, Franklin Lakes, N.J., USA) to remove the remaining cell mass, and thus a neuronal cell suspension was obtained. The neuronal cell suspension was diluted with the medium and then plated in a volume of 100 μl/well at an initial cell density of 5×10^5 cells/cm^2 in a 96-well polystyrene culture plate pre-coated with poly-L or D-lysine (Falcon Cat #35-3075, Becton Dickinson Labware, Franklin Lakes, N.J., USA coated with poly-L-lysine using the method shown below, or BIOCOAT™ cell environments Poly-D-lysine cell ware 96-well plate, Cat #35-6461, Becton Dickinson Labware, Franklin Lakes, N.J., USA). Poly-L-lysine coating was carried out as follows. 100 μg/ml of a poly-L-lysine (SIGMA P2636, St. Louis, Mo., USA) solution was aseptically prepared with a 0.15 M borate buffer (pH 8.5). 100 μl/well of the solution was added to the 96-well polystyrene culture plate and incubated at room temperature for one or more hours or at 4° C. overnight or longer. The coated 96-well polystyrene culture plate was washed with sterile water four or more times, and then dried or rinsed with, for example, sterile PBS or medium, and used for cell plating. The plated cells were cultured in the culture plate at 37° C. in 5% CO2-95% air for one day. Then, the total amount of the medium was replaced with a fresh Neurobasal™/B27/2-ME medium, and then the cells were cultured for further three days.\nThe drug was added to the culture plate on Day 4 of culture as follows. The total amount of the medium was removed from the wells, and 180 μl/well of Neurobasal medium not containing 2-ME and containing 2% B-27 (Neurobasal/B27) was added thereto. A solution of the test compound in dimethyl sulfoxide (hereinafter abbreviated as DMSO) was diluted with Neurobasal/B27 at 10-fold of the final concentration. 20 μl/well of the dilution was added to and sufficiently mixed with the medium. The final DMSO concentration was 1% or less. Only DMSO was added to the control group.\nThe cells were cultured for three days after addition of the compound, and the total amount of the medium was collected. […]"}
{"smiles": "COCc1ccccc1C1CCCn2nc(/C=C/c3ccc(-n4cnc(C)c4)c(OC)c3)nc21", "note": "(single isomer, unassigned; (-)) [Example 22, (−)-2-{(E)-2-[3-methoxy-4-(4-methyl-1H-imidazol-1-yl)phenyl]vinyl}-8-(2-methoxymethylphenyl)-5,6,7,8-tetrahydro-[1,2,4]triazolo[1,5-a]pyridine]", "pIC50": 7.60}
{"smiles": "COc1nc(/C=C/c2nc3n(n2)CCC[C@H]3c2cc(F)c(F)c(F)c2)ccc1-n1cnc(C)c1", "note": "(single isomer, unassigned) [Example 169, (−)-2-{(E)-2-[6-methoxy-5-(4-methyl-1H-imidazol-1-yl)pyridin-2-yl]vinyl}-8-(3,4,5-trifluorophenyl)-5,6,7,8-tetrahydro-[1,2,4]triazolo[1,5-a]pyridine]", "pIC50": 7.66}
{"smiles": "COc1cc(/C=C/c2nc3n(n2)CCCC3c2ccc(F)cc2)cnc1-n1cnc(C)c1", "note": "(single isomer, unassigned) [Example 212, (−)-8-(4-fluorophenyl)-2-{(E)-2-[5-methoxy-6-(4-methyl-1H-imidazol-1-yl)pyridin-3-yl]vinyl}-5,6,7,8-tetrahydro-[1,2,4]triazolo[1,5-a]pyridine]", "pIC50": 7.00}
{"smiles": "COc1nc(/C=C/c2nc3n(n2)CCCN3c2ccccc2)ccc1-n1cnc(C)c1", "note": "[Example 233, 2-{(E)-2-[6-methoxy-5-(4-methyl-1H-imidazol-1-yl)pyridin-2-yl]vinyl}-4-phenyl-4,5,6,7-tetrahydro-[1,2,4]triazolo[1,5-a]pyrimidine]", "pIC50": 7.38}
{"smiles": "COc1nc(/C=C/c2nc3n(n2)CCC[C@@H]3c2cc(F)ccc2F)ccc1-n1cnc(C)c1", "note": "(single isomer, unassigned) [Example 183, (−)-8-(2,5-difluorophenyl)-2-{(E)-2-[6-methoxy-5-(4-methyl-1H-imidazol-1-yl)pyridin-2-yl]vinyl}-5,6,7,8-tetrahydro[1,2,4]triazolo[1,5-a]pyridine]", "pIC50": 7.32}
{"smiles": "COc1nc(/C=C/c2nc3n(n2)CCC[C@H]3c2ccccc2)ccc1-n1cnc(C)c1", "note": "(single isomer, unassigned) [Example 207, (−)-2-{(E)-2-[6-methoxy-5-(4-methyl-1H-imidazol-1-yl)pyridin-2-yl]vinyl}-8-phenyl-5,6,7,8-tetrahydro-[1,2,4]triazolo[1,5-a]pyridine]", "pIC50": 7.55}
{"smiles": "COc1cc(/C=C/c2nc3n(n2)C[C@H](O)C[C@@H]3c2cc(F)c(F)c(F)c2)ccc1-n1cnc(C)c1", "note": "[Example 110, (6R,8R)-2-{(E)-2-[3-methoxy-4-(4-methyl-1H-imidazol-1-yl)phenyl]vinyl}-8-(3,4,5-trifluorophenyl)-5,6,7,8-tetrahydro-[1,2,4]triazolo[1,5-a]pyridin-6-ol]", "pIC50": 7.48}
{"smiles": "COc1nc(/C=C/c2nc3n(n2)CCC[C@H]3c2ccc(F)cc2Br)ccc1-n1cnc(C)c1", "note": "(single isomer, unassigned) [Example 185, (−)-8-(2-bromo-4-fluorophenyl)-2-{(E)-2-[6-methoxy-5-(4-methyl-1H-imidazol-1-yl)pyridin-2-yl]vinyl}-5,6,7,8-tetrahydro-[1,2,4]triazolo[1,5-a]pyridine]", "pIC50": 7.47}
{"smiles": "COc1cc(/C=C/c2nc3n(n2)CCCC3c2ccc(F)c(F)c2)cnc1-n1cnc(C)c1", "note": "(single isomer, unassigned) [Example 218, (−)-8-(3,4-difluorophenyl)-2-{(E)-2-[5-methoxy-6-(4-methyl-1H-imidazol-1-yl)pyridin-3-yl]vinyl}-5,6,7,8-tetrahydro-[1,2,4]triazolo[1,5-a]pyridine]", "pIC50": 7.16}
{"smiles": "COc1nc(/C=C/c2nc3n(n2)CCCC3c2cccc(C(F)(F)F)c2)ccc1-n1cnc(C)c1", "note": "(single isomer, unassigned; (-)) [Example 321, (−)-2-{(E)-2-[6-methoxy-5-(4-methyl-1H-imidazol-1-yl)pyridin-2-yl]vinyl}-8-(3-trifluoromethylphenyl)-5,6,7,8-tetrahydro[1,2,4]triazolo[1,5-a]pyridine]", "pIC50": 7.64}
{"smiles": "COc1cc(/C=C/c2nc3n(n2)CCCC3(O)c2ccccc2F)ccc1-n1cnc(C)c1", "note": "(single isomer, unassigned) [Example 59, (−)-8-(2-fluorophenyl)-2-{(E)-2-[3-methoxy-4-(4-methyl-1H-imidazol-1-yl)phenyl]vinyl}-5,6,7,8-tetrahydro-[1,2,4]triazolo[1,5-a]pyridin-8-ol]", "pIC50": 7.35}
{"smiles": "COc1cc(/C=C(\\F)c2nc3n(n2)CCC[C@]3(O)c2cc(F)c(F)c(F)c2)ccc1-n1cnc(C)c1", "note": "(single isomer, unassigned) [Example 94, (−)-2-{(Z)-1-fluoro-2-[3-methoxy-4-(4-methyl-1H-imidazol-1-yl)phenyl]vinyl}-8-(3,4,5-trifluorophenyl)-5,6,7,8-tetrahydro[1,2,4]triazolo[1,5-a]pyridin-8-ol]", "pIC50": 7.28}
{"smiles": "COc1nc(/C=C/c2nc3n(n2)CCC[C@@H]3c2ccc(F)c(Cl)c2)ccc1-n1cnc(C)c1", "note": "(single isomer, unassigned) [Example 175, (−)-8-(3-chloro-4-fluorophenyl)-2-{(E)-2-[6-methoxy-5-(4-methyl-1H-imidazol-1-yl)pyridin-2-yl]vinyl}-5,6,7,8-tetrahydro-[1,2,4]triazolo[1,5-a]pyridine]", "pIC50": 7.42}
{"smiles": "COc1nc(/C=C/c2nc3n(n2)CCC[C@@H]3c2cccc(F)c2)ccc1-n1cnc(C)c1", "note": "(single isomer, unassigned) [Example 189, (−)-8-(3-fluorophenyl)-2-{(E)-2-[6-methoxy-5-(4-methyl-1H-imidazol-1-yl)pyridin-2-yl]vinyl}-5,6,7,8-tetrahydro[1,2,4]triazolo[1,5-a]pyridine]", "pIC50": 7.37}
{"smiles": "COc1nc(/C=C/c2nc3n(n2)CCC[C@H]3c2cccc(C)c2F)ccc1-n1cnc(C)c1", "note": "(single isomer, unassigned) [Example 282, (−)-8-(2-fluoro-3-methylphenyl)-2-{(E)-2-[6-methoxy-5-(4-methyl-1H-imidazol-1-yl)pyridin-2-yl]vinyl}-5,6,7,8-tetrahydro-[1,2,4]triazolo[1,5-a]pyridine]", "pIC50": 7.54}
{"smiles": "COc1nc(/C=C/c2nc3n(n2)CCC3c2cc(F)cc(F)c2)ccc1-n1cnc(C)c1", "note": "(stereo not shown) [Example 384, 7-(3,5-difluorophenyl)-2-{(E)-2-[6-methoxy-5-(4-methyl-1H-imidazol-1-yl)pyridin-2-yl]vinyl}-6,7-dihydro-5H-pyrrolo[1,2-b][1,2,4]triazole]", "pIC50": 7.44}
{"smiles": "COc1nc(/C=C/c2nc3n(n2)CCC[C@H]3c2ccccc2Cl)ccc1-n1cnc(C)c1", "note": "(single isomer, unassigned) [Example 193, (−)-8-(2-chlorophenyl)-2-{(E)-2-[6-methoxy-5-(4-methyl-1H-imidazol-1-yl)pyridin-2-yl]vinyl}-5,6,7,8-tetrahydro-[1,2,4]triazolo[1,5-a]pyridine]", "pIC50": 7.10}
{"smiles": "COc1cc(/C=C/c2nc3n(n2)CCCC3c2ccc(Br)cc2)ccc1-n1cnc(C)c1", "note": "(single isomer, unassigned; (-)) [Example 20, (−)-8-(4-bromophenyl)-2-{(E)-2-[3-methoxy-4-(4-methyl-1H-imidazol-1-yl)phenyl]vinyl}-5,6,7,8-tetrahydro-[1,2,4]triazolo[1,5-a]pyridine]", "pIC50": 7.52}
{"smiles": "COc1nc(/C=C/c2nc3n(n2)CCC(C)N3c2ccc(F)cc2F)ccc1-n1cnc(C)c1", "note": "(stereo not shown) [Example 371, 4-(2,4-difluorophenyl)-2-{(E)-2-[6-methoxy-5-(4-methyl-1H-imidazol-1-yl)pyridin-2-yl]vinyl}-5-methyl-4,5,6,7-tetrahydro-[1,2,4]triazolo[1,5-a]pyrimidine]", "pIC50": 7.57}
